Measured values from the supplement of paper PMC10307832.

Assays:
Experiment in all cases: relative viability (nuclei count vs DMSO), 5 days (fraction); higher = more cells survive
[1] = compound: O=C(O)c1ccc2c(c1)nc(Nc1cccc(Cl)c1)c1ccncc12 [Silmitasertib] + Cc1nc(Nc2ncc(C(=O)Nc3c(C)cccc3Cl)s2)cc(N2CCN(CCO)CC2)n1 [Dasatinib] (partner 0.075 µM)
In short: (§1)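 After 5 days of treatment, lung cancer cells in 1536-well plates were fixed and stained in a single step (final 0.05% Triton X-100, 1% formaldehyde, 1 ug/ml Hoechst) and their nuclei counted on 4× images. Treatment had been applied by pin tool the day after seeding as one drug alone or as a fixed anchor-drug dose with five library-drug doses (not always all listed) in √10 steps. Relative viability is the nuclei count of treated wells divided by that of vehicle wells, and values are medians of duplicate plates.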

[2] = compound: O=C(O)c1ccc2c(c1)nc(Nc1cccc(Cl)c1)c1ccncc12 [Silmitasertib] + Nc1nc2[nH]cc(CCc3ccc(C(=O)N[C@@H](CCC(=O)O)C(=O)O)cc3)c2c(=O)[nH]1 [Pemetrexed] (partner 0.2 µM)
In short: as §1

[3] = compound: O=C(O)c1ccc2c(c1)nc(Nc1cccc(Cl)c1)c1ccncc12 [Silmitasertib] + C[C@@H](Oc1cc(-c2cnn(C3CCNCC3)c2)cnc1N)c1c(Cl)ccc(F)c1Cl [Crizotinib] (partner 1 µM)
In short: as §1

[4] = compound: O=C(O)c1ccc2c(c1)nc(Nc1cccc(Cl)c1)c1ccncc12 [Silmitasertib] + CCNC(=O)c1noc(-c2cc(C(C)C)c(O)cc2O)c1-c1ccc(CN2CCOCC2)cc1 [Luminespib] (partner 0.01 µM)
In short: as §1

[5] = compound: O=C(O)c1ccc2c(c1)nc(Nc1cccc(Cl)c1)c1ccncc12 [Silmitasertib] + COc1cc2c(Oc3ccc(NC(=O)C4(C(=O)Nc5ccc(F)cc5)CC4)cc3F)ccnc2cc1OCCCN1CCOCC1 [Foretinib] (partner 0.25 µM)
In short: as §1

[6] = compound: O=C(O)c1ccc2c(c1)nc(Nc1cccc(Cl)c1)c1ccncc12 [Silmitasertib] + N=C(N)NC(=N)NCCc1ccccc1 [Phenformin] (partner 250 µM)
In short: as §1

[7] = compound: O=C(O)c1ccc2c(c1)nc(Nc1cccc(Cl)c1)c1ccncc12 [Silmitasertib] + CS(=O)(=O)CCNCc1ccc(-c2ccc3ncnc(Nc4ccc(OCc5cccc(F)c5)c(Cl)c4)c3c2)o1 [Lapatinib] (partner 2 µM)
In short: as §1

[8] = compound: O=C(O)c1ccc2c(c1)nc(Nc1cccc(Cl)c1)c1ccncc12 [Silmitasertib] + CS(=O)(=O)N1CCN(Cc2cc3nc(-c4cccc5[nH]ncc45)nc(N4CCOCC4)c3s2)CC1 [Pictilisib] (partner 1 µM)
In short: as §1

[9] = compound: O=C(O)c1ccc2c(c1)nc(Nc1cccc(Cl)c1)c1ccncc12 [Silmitasertib] + C[C@]1(O)C[C@@H](c2nc(-c3ccc4ccc(-c5ccccc5)nc4c3)c3c(N)nccn32)C1 [Linsitinib] (partner 1 µM)
In short: as §1

Silmitasertib + OSI-027 = compound: O=C(O)c1ccc2c(c1)nc(Nc1cccc(Cl)c1)c1ccncc12 [Silmitasertib] + COc1cccc2cc(-c3nc([C@H]4CC[C@H](C(=O)O)CC4)n4ncnc(N)c34)[nH]c12 [OSI-027] (partner 0.5 µM)
In short: as §1

[10] = compound: O=C(O)c1ccc2c(c1)nc(Nc1cccc(Cl)c1)c1ccncc12 [Silmitasertib] + Cc1nc(NC(=O)N2CCC[C@H]2C(N)=O)sc1-c1ccnc(C(C)(C)C(F)(F)F)c1 [Alpelisib] (partner 2 µM)
In short: as §1

[11] = compound: O=C(O)c1ccc2c(c1)nc(Nc1cccc(Cl)c1)c1ccncc12 [Silmitasertib] + CC(C)C[C@H](NC(=O)[C@H](Cc1ccccc1)NC(=O)c1cnccn1)B(O)O [Bortezomib] (partner 0.002 µM)
In short: as §1

Silmitasertib = compound: O=C(O)c1ccc2c(c1)nc(Nc1cccc(Cl)c1)c1ccncc12 [Silmitasertib]
In short: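 Five library-drug doses spaced by √10 were pinned onto vehicle-anchored 1536-well plates of lung cancer cell lines that had been kept overnight at 37 °C. Cells went 5 days without medium change, then were fixed, permeabilised and Hoechst-stained together, imaged at 4× and counted by MetaXpress. Viability is the ratio of treated-well to vehicle-well nuclei, taken as a median over plates. Plates required control CV below 25% and at least one doubling.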

[12] = compound: O=C(O)c1ccc2c(c1)nc(Nc1cccc(Cl)c1)c1ccncc12 [Silmitasertib] + Cc1cc(Nc2cc(N3CCN(C)CC3)nc(Sc3ccc(NC(=O)C4CC4)cc3)n2)n[nH]1 [Tozasertib] (partner 0.1 µM)
In short: as §1

With NCI-H1563 the relative viability ([1]; first compound 0.04 µM) was 0.493, the relative viability ([1]; first compound 0.4 µM) was 0.486 and the relative viability ([1]; first compound 4 µM) was 0.431. The relative viability ([2]; first compound 0.04 µM) was 0.871, the relative viability ([2]; first compound 0.4 µM) was 0.844 and the relative viability ([2]; first compound 4 µM) was 0.693. For the same cell line, the relative viability ([3]; first compound 0.04 µM) was 0.88, the relative viability ([3]; first compound 0.4 µM) was 0.822 and the relative viability ([3]; first compound 1.265 µM) was 0.856. For the same cell line, the relative viability ([3]; first compound 4 µM) was 0.857, the relative viability ([4]; first compound 0.04 µM) was 0.56 and the relative viability ([4]; first compound 0.4 µM) was 0.486. For the same cell line, the relative viability ([4]; first compound 4 µM) was 0.521, the relative viability ([5]; first compound 0.04 µM) was 0.96 and the relative viability ([5]; first compound 0.4 µM) was 0.952. The relative viability ([5]; first compound 1.265 µM) was 0.879, the relative viability ([5]; first compound 4 µM) was 0.974 and the relative viability ([6]; first compound 0.04 µM) was 0.711. The relative viability ([6]; first compound 0.4 µM) was 0.714, the relative viability ([6]; first compound 1.265 µM) was 0.655 and the relative viability ([6]; first compound 4 µM) was 0.627. For the same cell line, the relative viability ([7]; first compound 0.04 µM) was 1.13, the relative viability ([7]; first compound 0.4 µM) was 0.925 and the relative viability ([7]; first compound 1.265 µM) was 0.909. For the same cell line, the relative viability ([7]; first compound 4 µM) was 0.877, the relative viability ([8]; first compound 0.04 µM) was 0.62 and the relative viability ([8]; first compound 0.4 µM) was 0.679. The relative viability ([8]; first compound 1.265 µM) was 0.68, the relative viability ([8]; first compound 4 µM) was 0.578 and the relative viability ([9]; first compound 0.04 µM) was 1.32. The relative viability ([9]; first compound 0.4 µM) was 1.22, the relative viability ([9]; first compound 1.265 µM) was 1.17 and the relative viability ([9]; first compound 4 µM) was 1.16. It also gave a relative viability (Silmitasertib + OSI-027; first compound 0.04 µM) of 0.773, a relative viability (Silmitasertib + OSI-027; first compound 0.4 µM) of 0.773 and a relative viability (Silmitasertib + OSI-027; first compound 1.265 µM) of 0.779. The relative viability (Silmitasertib + OSI-027; first compound 4 µM) was 0.681, the relative viability ([10]; first compound 0.04 µM) was 0.922 and the relative viability ([10]; first compound 0.4 µM) was 0.734. The relative viability ([10]; first compound 1.265 µM) was 0.923, the relative viability ([10]; first compound 4 µM) was 0.92 and the relative viability ([11]; first compound 0.04 µM) was 0.932. For the same cell line, the relative viability ([11]; first compound 0.4 µM) was 0.903, the relative viability ([11]; first compound 1.265 µM) was 0.844 and the relative viability ([11]; first compound 4 µM) was 0.821. It also gave a relative viability (Silmitasertib; 0.04 µM) of 0.989, a relative viability (Silmitasertib; 0.4 µM) of 1.03 and a relative viability (Silmitasertib; 1.265 µM) of 0.887. For the same cell line, the relative viability (Silmitasertib; 4 µM) was 0.903.

Work on NCI-H1623 yielded a relative viability ([1]; first compound 0.04 µM) of 0.576, a relative viability ([1]; first compound 0.4 µM) of 0.456 and a relative viability ([1]; first compound 1.265 µM) of 0.297. The relative viability ([1]; first compound 4 µM) was 0.361, the relative viability ([4]; first compound 0.04 µM) was 0.46 and the relative viability ([4]; first compound 0.4 µM) was 0.4. It also gave a relative viability ([4]; first compound 1.265 µM) of 0.355, a relative viability ([4]; first compound 4 µM) of 0.343 and a relative viability ([5]; first compound 0.04 µM) of 0.934. For the same cell line, the relative viability ([5]; first compound 0.4 µM) was 0.572, the relative viability ([5]; first compound 1.265 µM) was 0.49 and the relative viability ([5]; first compound 4 µM) was 0.536. For the same cell line, the relative viability ([6]; first compound 0.04 µM) was 0.563, the relative viability ([6]; first compound 0.4 µM) was 0.498 and the relative viability ([6]; first compound 1.265 µM) was 0.446. For the same cell line, the relative viability ([6]; first compound 4 µM) was 0.382, the relative viability (Silmitasertib + OSI-027; first compound 0.04 µM) was 0.347 and the relative viability (Silmitasertib + OSI-027; first compound 0.4 µM) was 0.385. For the same cell line, the relative viability (Silmitasertib + OSI-027; first compound 1.265 µM) was 0.368, the relative viability (Silmitasertib + OSI-027; first compound 4 µM) was 0.357 and the relative viability ([12]; first compound 0.04 µM) was 0.422. It also gave a relative viability ([12]; first compound 0.4 µM) of 0.392, a relative viability ([12]; first compound 1.265 µM) of 0.36 and a relative viability ([12]; first compound 4 µM) of 0.371. For the same cell line, the relative viability (Silmitasertib; 0.04 µM) was 1.03, the relative viability (Silmitasertib; 0.4 µM) was 0.715 and the relative viability (Silmitasertib; 1.265 µM) was 0.689. For the same cell line, the relative viability (Silmitasertib; 4 µM) was 0.693.
